Laboratory results from patent US9695155B2, “Herbicidal substituted pyrimidinyloxy benzene compounds” (E. I. DU PONT DE NEMOURS AND COMPANY, priority 2013, dated 2017).

Assays:
[1] = tested on: velvetleaf; experiment: Test C postemergence; type: in vivo, Abutilon theophrasti
From the text: (§1) Seeds of plant species selected from blackgrass (Alopecurus myosuroides), Italian ryegrass (Lolium multiflorum), wheat, winter (winter wheat, Triticum aestivum), galium (catchweed bedstraw, Galium aparine), corn (Zea mays), large (Lg) crabgrass (Digitaria sanguinalis), giant foxtail (Setaria faberii), johnsongrass (Sorghum halepense), lambsquarters (Chenopodium album), morningglory (Ipomoea coccinea), yellow nutsedge (Cyperus esculentus), pigweed (Amaranthus retroflexus), ragweed (common ragweed, Ambrosia elatior), soybean (Glycine max), barnyardgrass (Echinochloa crus-galli), oilseed rape (Brassica napus), waterhemp (common waterhemp, Amaranthus rudis), kochia (Kochia scoparia), wild oat (Avena fatua), surinam grass (Brachiaria decumbens), foxtail, green (green foxtail, Setaria viridis), goosegrass (Eleusine indica), bromegrass, downy (downy bromegrass, Bromus tectorum), nightshade (eastern black nightshade, Solanum ptycanthum), cocklebur (common cocklebur, Xanthium strumarium), cupgrass, woolly (woolly cupgrass, Eriochloa villosa), bermudagrass (Cynodon dactylon), sunflower, (common oilseed sunflower, Helianthus annuus), Russian thistle (Salsola kali), and velvetleaf (Abutilon theophrasti) were planted into a blend of loam soil and sand and treated preemergence with test chemicals formulated in a non-phytotoxic solvent mixture which included a surfactant.
(§2) At the same time, plants selected from these crop and weed species and also barley, winter (winter barley, Hordeum vulgare), windgrass (Apera spica-venti), chickweed (common chickweed, Stellaria media), deadnettle (henbit deadnettle, Lamium amplexicaule), and canarygrass (littleseed canarygrass, Phalaris minor) were planted in pots containing Redi-Earth® planting medium (Scotts Company, 14111 Scottslawn Road, Marysville, Ohio 43041) comprising spaghnum peat moss, vermiculite, wetting agent and starter nutrients and treated with postemergence applications of test chemicals formulated in the same manner. Plants ranged in height from 2 to 18 cm (1- to 4-leaf stage) for postemergence treatments. Treated plants and controls were maintained in a greenhouse for 13 to 15 days, after which time all species were compared to controls and visually evaluated. Plant response ratings, summarized in Table C, are based on a scale of 0 to 100 where 0 is no effect and 100 is complete control. A dash (-) response means no test result.

[2] = tested on: sedge, umbrella; experiment: Test B flooded paddy test; type: in vivo, Cyperus difformis; settings: Flood, 250 g ai/ha, 0 to 100 scale where 0 is no effect and 100 is complete control
Method in brief: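 Seedlings are raised to two leaves, flooded to a depth of 3 cm and dosed by adding the compound to the floodwater. Water level is kept constant, and plants are scored visually versus controls 13–15 days later (0 = no effect, 100 = complete control).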

[3] = tested on: corn; experiment: Test A preemergence; type: in vivo, Zea mays
Method in brief: (§3)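 Greenhouse pot test, loam/sand soil. Formulation: non-phytotoxic solvent mix plus surfactant. Pre: directed spray onto soil after sowing. Post: plants at 1–2 leaf, 2–10 cm. Rated visually vs untreated controls at ~10 d, 0 (no effect) to 100 (complete control).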

[4] = tested on: Italian ryegrass; experiment: Test C postemergence; type: in vivo, Lolium multiflorum
From the text: as §1, §2

[5] = tested on: velvetleaf; experiment: Test A preemergence; type: in vivo, Abutilon theophrasti
Method in brief: as §3

[6] = tested on: wheat; experiment: Test A postemergence; type: in vivo, Triticum aestivum
Method in brief: as §3

[7] = tested on: lambsquarters; experiment: Test C postemergence; type: in vivo, Chenopodium album
From the text: as §1, §2

[8] = tested on: wheat, winter; experiment: Test C postemergence; type: in vivo, Triticum aestivum
From the text: as §1, §2

[9] = tested on: galium; experiment: Test C postemergence; type: in vivo, Galium aparine; settings: Galium, post-emergence
From the text: as §1, §2

[10] = tested on: corn; experiment: Test C preemergence; type: in vivo, Zea mays; settings: for Corn plant response rating: preemergence, scale 0 (no effect) to 100 (complete control)
Method in brief: (§4)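 Seeds are planted in blended loam soil and sand and treated preemergence, while seedlings in a peat moss/vermiculite medium receive postemergence sprays at 2 to 18 cm height. All plants stay in the greenhouse for 13 to 15 days before visual comparison with controls on a 0–100 scale.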

[11] = tested on: pigweed; experiment: Test C preemergence; type: in vivo, Amaranthus retroflexus; settings: for Pigweed plant response rating: preemergence, scale 0 (no effect) to 100 (complete control)
Method in brief: as §4

[12] = tested on: blackgrass; experiment: Test C preemergence; type: in vivo, Alopecurus myosuroides; settings: for Blackgrass plant response rating: preemergence, scale 0 (no effect) to 100 (complete control)
Method in brief: as §4

[13] = tested on: velvetleaf; experiment: Test C preemergence; type: in vivo, Abutilon theophrasti; settings: for Velvetleaf plant response rating: preemergence, scale 0 (no effect) to 100 (complete control)
Method in brief: as §4

[14] = Postemergence, 31 g ai/ha, scale 0 to 100 (0 no effect, 100 complete control), 13 to 15 days
[15] = Preemergence, 31 g ai/ha, scale 0 to 100, 0 no effect, 100 complete control
[16] = 125 g ai/ha, 0 to 100 scale where 0 is no effect and 100 is complete control
[17] = 500 g ai/ha, 0 to 100 scale, 0 no effect, 100 complete control, approx. 10 days
[18] = Postemergence, 62 g ai/ha, scale 0 to 100 (0 no effect, 100 complete control)

Fc1cnc(Oc2ccccc2-n2cc(Br)cn2)nc1 [Compound 10, 2-[2-(4-bromo-1H-pyrazol-1-yl)phenoxy]-5-fluoropyrimidine]
pest or weed control at 125 g/ha ([1]; Abutilon theophrasti, post-emergence, 125 g ai/ha, postemergence, read-out: Plant response rating (0 to 100), Velvetleaf): 70%
pest or weed control at 250 g/ha ([1]; Abutilon theophrasti, post-emergence, 250 g ai/ha, postemergence, read-out: Plant response rating (0 to 100), Velvetleaf): 90%
pest or weed control at 31 g/ha ([1]; Abutilon theophrasti, post-emergence, Postemergence, 31 g ai/ha, scale 0 to 100 (0 no effect, 100 complete control), 13 to 15 days, read-out: Plant response rating, Velvetleaf): 50%
pest or weed control at 62 g/ha ([1]; Abutilon theophrasti, post-emergence, Postemergence, 62 g ai/ha, scale 0 to 100 (0 no effect, 100 complete control), read-out: Plant response rating, Velvetleaf): 70%
pest or weed control at 250 g/ha ([2]; Cyperus difformis, read-out: Plant response rating, Sedge, Umbrella): 50%
plant injury at 125 g/ha ([3]; Zea mays, pre-emergence, 240 h, 125 g ai/ha, 0 to 100 scale where 0 is no effect and 100 is complete control, read-out: Corn plant response rating): 0%
plant injury at 500 g/ha ([3]; Zea mays, pre-emergence, 240 h, 500 g ai/ha, 0 to 100 scale, 0 no effect, 100 complete control, approx. 10 days, read-out: Corn plant response rating): 20%
pest or weed control at 125 g/ha ([4]; Lolium multiflorum, post-emergence, 125 g ai/ha, postemergence, read-out: Plant response rating (0 to 100), Ryegrass, Italian): 5%
pest or weed control at 250 g/ha ([4]; Lolium multiflorum, post-emergence, 250 g ai/ha, postemergence, read-out: Plant response rating (0 to 100), Ryegrass, Italian): 10%
pest or weed control at 31 g/ha ([4]; Lolium multiflorum, post-emergence, Postemergence, 31 g ai/ha, scale 0 to 100 (0 no effect, 100 complete control), 13 to 15 days, read-out: Plant response rating, Ryegrass, Italian): 0%
pest or weed control at 62 g/ha ([4]; Lolium multiflorum, post-emergence, Postemergence, 62 g ai/ha, scale 0 to 100 (0 no effect, 100 complete control), read-out: Plant response rating, Ryegrass, Italian): 0%
pest or weed control at 125 g/ha ([5]; Abutilon theophrasti, pre-emergence, 240 h, 125 g ai/ha, 0 to 100 scale where 0 is no effect and 100 is complete control, read-out: Velvetleaf plant response rating): 100%
pest or weed control at 500 g/ha ([5]; Abutilon theophrasti, pre-emergence, 240 h, 500 g ai/ha, 0 to 100 scale, 0 no effect, 100 complete control, approx. 10 days, read-out: Velvetleaf plant response rating): 100%
plant injury at 125 g/ha ([6]; Triticum aestivum, post-emergence, 240 h, 125 g ai/ha, 0 to 100 scale where 0 is no effect and 100 is complete control, read-out: Plant response rating, Wheat): 0%
plant injury at 500 g/ha ([6]; Triticum aestivum, post-emergence, 240 h, 500 g ai/ha, 0 to 100 scale, 0 no effect, 100 complete control, read-out: Plant response rating Wheat): 60%
pest or weed control at 125 g/ha ([7]; Chenopodium album, post-emergence, 125 g ai/ha, postemergence, read-out: Plant response rating (0 to 100), Lambsquarters): 75%
pest or weed control at 250 g/ha ([7]; Chenopodium album, post-emergence, 250 g ai/ha, postemergence, read-out: Plant response rating (0 to 100), Lambsquarters): 98%
pest or weed control at 31 g/ha ([7]; Chenopodium album, post-emergence, Postemergence, 31 g ai/ha, scale 0 to 100 (0 no effect, 100 complete control), 13 to 15 days, read-out: Plant response rating, Lambsquarters): 55%
pest or weed control at 62 g/ha ([7]; Chenopodium album, post-emergence, Postemergence, 62 g ai/ha, scale 0 to 100 (0 no effect, 100 complete control), read-out: Plant response rating, Lambsquarters): 55%
plant injury at 125 g/ha ([8]; Triticum aestivum, post-emergence, 125 g ai/ha, postemergence, read-out: Plant response rating (0 to 100), Wheat): 5%
plant injury at 250 g/ha ([8]; Triticum aestivum, post-emergence, 250 g ai/ha, postemergence, read-out: Plant response rating (0 to 100), Wheat): 10%
plant injury at 31 g/ha ([8]; Triticum aestivum, post-emergence, Postemergence, 31 g ai/ha, scale 0 to 100 (0 no effect, 100 complete control), 13 to 15 days, read-out: Plant response rating, Wheat): 5%
plant injury at 62 g/ha ([8]; Triticum aestivum, post-emergence, Postemergence, 62 g ai/ha, scale 0 to 100 (0 no effect, 100 complete control), read-out: Plant response rating, Wheat): 5%
pest or weed control at 125 g/ha ([9]; 125 g ai/ha, postemergence, read-out: Plant response rating (0 to 100), Galium): 80%
pest or weed control at 250 g/ha ([9]; 250 g ai/ha, postemergence, read-out: Plant response rating (0 to 100), Galium): 95%
pest or weed control at 31 g/ha ([9]; Postemergence, 31 g ai/ha, scale 0 to 100 (0 no effect, 100 complete control), 13 to 15 days, read-out: Plant response rating, Galium): 65%
pest or weed control at 62 g/ha ([9]; Postemergence, 62 g ai/ha, scale 0 to 100 (0 no effect, 100 complete control), read-out: Plant response rating, Galium): 80%

FC(F)(F)c1cnn(-c2ccccc2Oc2ncc(Cl)cn2)c1 [Compound 16]
Plant response rating (0 to 100), Velvetleaf ([1]; 125 g ai/ha, postemergence): 75
Plant response rating (0 to 100), Velvetleaf ([1]; 250 g ai/ha, postemergence): 75
Plant response rating, Velvetleaf [1, 14]: 60
Corn plant response rating ([10]; 62 g ai/ha): 15
Corn plant response rating ([10]; 125 g ai/ha): 25
Corn plant response rating ([10]; 250 g ai/ha): 35
Plant response rating, Corn [10, 15]: 0
Plant response rating, Sedge, Umbrella [2]: 90
Pigweed plant response rating ([11]; 62 g ai/ha): 100
Pigweed plant response rating ([11]; 125 g ai/ha): 100
Pigweed plant response rating ([11]; 250 g ai/ha): 100
Plant response rating, Pigweed [11, 15]: 100
Corn plant response rating [3, 16]: 10
Corn plant response rating [3, 17]: 30
Plant response rating (0 to 100), Ryegrass, Italian ([4]; 125 g ai/ha, postemergence): 20
Plant response rating (0 to 100), Ryegrass, Italian ([4]; 250 g ai/ha, postemergence): 20
Plant response rating, Ryegrass, Italian [4, 14]: 10
Plant response rating, Ryegrass, Italian [4, 18]: 15
Velvetleaf plant response rating [5, 16]: 100
Velvetleaf plant response rating [5, 17]: 100
Plant response rating, Wheat [6, 16]: 70
Plant response rating, Wheat ([6]; 500 g ai/ha, 0 to 100 scale, 0 no effect, 100 complete control): 80
Plant response rating (0 to 100), Lambsquarters ([7]; 125 g ai/ha, postemergence): 100
Plant response rating (0 to 100), Lambsquarters ([7]; 250 g ai/ha, postemergence): 100
Plant response rating, Lambsquarters [7, 14]: 75
Plant response rating, Lambsquarters [7, 18]: 100
Plant response rating (0 to 100), Wheat ([8]; 125 g ai/ha, postemergence): 35
Plant response rating (0 to 100), Wheat ([8]; 250 g ai/ha, postemergence): 35
Plant response rating, Wheat [8, 14]: 5
Plant response rating, Wheat [8, 18]: 15
Blackgrass plant response rating ([12]; 62 g ai/ha): 90
Blackgrass plant response rating ([12]; 125 g ai/ha): 90
Blackgrass plant response rating ([12]; 250 g ai/ha): 90
Plant response rating, Blackgrass [12, 15]: 85
Velvetleaf plant response rating ([13]; 62 g ai/ha): 100
Velvetleaf plant response rating ([13]; 125 g ai/ha): 100
Velvetleaf plant response rating ([13]; 250 g ai/ha): 100
Plant response rating, Velvetleaf [13, 15]: 98
